# Laboratory results: patent US20220332700A1, “NOVEL APOPTOSIS SIGNAL-REGULATING KINASE 1 INHIBITORS” (MANKIND PHARMA LTD, priority 2019, published 2022)
# What was measured:
# [1] = molecular target: T1, recombinant ASK1 (Homo sapiens, UniProt Q99683); experiment: ASK1 Biochemical Assay (HTRF KinEASE-STK S3); conditions: ATP 100 μM; read-out: Biochemical Assay IC50
# T1 construct: purchased Carna Biosciences
# Method in brief: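 Recombinant ASK1 (5 ng) preincubated with compound 1 h at 23 °C in MOPS pH 7 buffer with Mg-acetate, DTT, NP40, glycerol, BSA and 1% DMSO. Inhibition calculated against vehicle after substrate-blank subtraction.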
# [2] = molecular target: T2, Human ASK1 (Homo sapiens, UniProt Q99683); experiment: ASK1 Cell Based Assay (phospho p38 read out in hASK1 transfected HEK293T-AP1 cells); conditions: HEK293T-AP1 cells, 1 mM hydrogen peroxide, phospho p38; read-out: Cell Based Assay IC50
# T2 construct: expressed in transfected cells; host or cells: HEK293T-AP1
# T2 sequence (Q99683 1-1374): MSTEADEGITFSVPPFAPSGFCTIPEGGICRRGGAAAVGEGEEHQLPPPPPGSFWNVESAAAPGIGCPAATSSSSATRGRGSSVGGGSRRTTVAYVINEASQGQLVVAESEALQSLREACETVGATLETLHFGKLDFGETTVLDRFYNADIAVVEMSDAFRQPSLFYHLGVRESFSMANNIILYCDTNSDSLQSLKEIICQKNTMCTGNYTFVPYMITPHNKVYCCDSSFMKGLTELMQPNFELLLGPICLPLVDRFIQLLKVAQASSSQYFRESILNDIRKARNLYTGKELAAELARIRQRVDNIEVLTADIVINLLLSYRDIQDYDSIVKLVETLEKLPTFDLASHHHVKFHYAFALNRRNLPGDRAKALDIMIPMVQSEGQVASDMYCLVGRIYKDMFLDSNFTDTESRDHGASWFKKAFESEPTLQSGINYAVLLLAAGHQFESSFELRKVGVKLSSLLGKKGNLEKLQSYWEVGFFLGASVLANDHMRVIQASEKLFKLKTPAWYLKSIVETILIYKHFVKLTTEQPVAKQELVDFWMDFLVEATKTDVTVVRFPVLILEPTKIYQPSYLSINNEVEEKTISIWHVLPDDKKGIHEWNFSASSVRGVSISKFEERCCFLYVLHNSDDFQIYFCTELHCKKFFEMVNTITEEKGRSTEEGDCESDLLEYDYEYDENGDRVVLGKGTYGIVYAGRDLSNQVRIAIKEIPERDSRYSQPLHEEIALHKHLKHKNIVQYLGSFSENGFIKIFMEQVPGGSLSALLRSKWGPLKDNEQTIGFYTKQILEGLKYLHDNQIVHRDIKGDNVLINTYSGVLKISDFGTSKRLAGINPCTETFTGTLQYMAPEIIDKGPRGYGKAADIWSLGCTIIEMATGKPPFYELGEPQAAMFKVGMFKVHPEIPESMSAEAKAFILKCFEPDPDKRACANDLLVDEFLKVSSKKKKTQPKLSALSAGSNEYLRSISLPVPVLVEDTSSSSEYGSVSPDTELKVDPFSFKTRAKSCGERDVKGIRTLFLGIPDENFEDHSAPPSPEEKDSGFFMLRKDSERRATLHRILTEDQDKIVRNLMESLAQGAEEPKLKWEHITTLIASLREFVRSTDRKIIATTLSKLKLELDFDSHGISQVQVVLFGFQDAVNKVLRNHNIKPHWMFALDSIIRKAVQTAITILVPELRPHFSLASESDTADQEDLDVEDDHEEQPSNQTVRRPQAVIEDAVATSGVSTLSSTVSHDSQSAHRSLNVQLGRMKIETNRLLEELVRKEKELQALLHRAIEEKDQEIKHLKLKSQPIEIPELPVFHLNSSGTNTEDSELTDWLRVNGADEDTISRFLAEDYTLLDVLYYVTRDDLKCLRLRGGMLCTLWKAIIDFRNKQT
# Method in brief: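 HEK293T-AP1 cells transfected with hASK1, after 24 h treated with compounds for 24 h (0.2% DMSO), then stimulated with 1 mM H2O2 for 1 h with compounds present.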
Structure (SMILES),IC50 [1] [nM],IC50 [2] [nM]
"CC(C)n1cnnc1-c1cccc(N2CCN(c3cnc(N4CCOCC4)nc3)C2=O)n1 [Example 1103, 1-(6-(4-isopropyl-4H-1,2,4-triazol-3-yl)pyridin-2-yl)-3-(2-morpholinopyrimidin-5-yl)imidazolidin-2-one]",< 100,> 100
"CC(C)n1cnnc1-c1cccc(N2CCN(c3cccc(N4CCOCC4)c3)C2=O)n1 [Example 1108, 1-(6-(4-isopropyl-4H-1,2,4-triazol-3-yl)pyridin-2-yl)-3-(3-morpholinophenyl)imidazolidin-2-one]",> 100,> 1000
"CC(C)n1cnnc1-c1cccc(N2CCN(Cc3ccc(N4CCOCC4)cc3)C2=O)n1 [Example 1112, 1-(4-morpholinobenzyl)-3-(6-(4-isopropyl-4H-1,2,4-triazol-3-yl)pyridin-2-yl)imidazolidin-2-one]",< 100,> 1000
"CC(C)n1cnnc1-c1cccc(N2CCN(c3ccc(C(C#N)N4CCOCC4)nc3)C2=O)n1 (stereo not drawn) [Example 1113, 2-(5-(3-(6-(4-isopropyl-4H-1,2,4-triazol-3-yl)pyridin-2-yl)-2-oxoimidazolidin-1-yl)pyridin-2-yl)-2-morpholinoacetonitrile]",< 100,> 1000
"CC(c1ccc(N2CCN(c3cccc(-c4nncn4C(C)C)n3)C2=O)cc1)N1CCOCC1 (stereo not drawn) [Example 1114, 1-(6-(4-isopropyl-4H-1,2,4-triazol-3-yl)pyridin-2-yl)-3-(4-(1-morpholinoethyl)phenyl)imidazolidin-2-one]",< 10,> 1000

# Results, then the molecule that gave them:
IC50 [1] [nM],IC50 [2] [nM],Structure (SMILES)
< 50,190,"CC(C)n1cnnc1-c1cccc(N2CCN(c3ccc(N4CCOCC4)nc3)C2=O)n1 [Example 1101, 1-(6-(4-isopropyl-4H-1,2,4-triazol-3-yl)pyridin-2-yl)-3-(6-morpholinopyridin-3-yl)imidazolidin-2-one]"
< 100,> 100,"CC(C)n1cnnc1-c1cccc(N2CCN(c3ccc(-n4ccnc4)nc3)C2=O)n1 [Example 1104, 1-(6-(1H-imidazol-1-yl)pyridin-3-yl)-3-(6-(4-isopropyl-4H-1,2,4-triazol-3-yl)pyridin-2-yl)imidazolidin-2-one]"
< 100,> 100,"CC(C)n1cnnc1-c1cccc(N2CCN(c3ccc(N(C)C)nc3)C2=O)n1 [Example 1105, 1-(6-(dimethylamino)pyridin-3-yl)-3-(6-(4-isopropyl-4H-1,2,4-triazol-3-yl)pyridin-2-yl)imidazolidin-2-one]"
< 100,> 1000,"CNC(=O)c1ccc(N2CCN(c3cccc(-c4nncn4C(C)C)n3)C2=O)cn1 [Example 1106, 5-(3-(6-(4-isopropyl-4H-1,2,4-triazol-3-yl)pyridin-2-yl)-2-oxoimidazolidin-1-yl)-N-methylpyridine-2-carboxamide]"
< 50,< 100,"CC(C)n1cnnc1-c1cccc(N2CCN(c3ccc(N4CC(C#N)C4)nc3)C2=O)n1 [Example 1107, 1-(5-(3-(6-(4-isopropyl-4H-1,2,4-triazol-3-yl)pyridin-2-yl)-2-oxoimidazolidin-1-yl)pyridin-2-yl)azetidine-3-carbonitrile]"
< 100,> 1000,"CC(C)n1cnnc1-c1cccc(N2CCN(c3ccc(C(=O)NC4CC4)nc3)C2=O)n1 [Example 1109, N-cyclopropyl-5-(3-(6-(4-isopropyl-4H-1,2,4-triazol-3-yl)pyridin-2-yl)-2-oxoimidazolidin-1-yl)pyridine-2-carboxamide]"
< 100,> 1000,"CC(C)NC(=O)c1ccc(N2CCN(c3cccc(-c4nncn4C(C)C)n3)C2=O)cn1 [Example 1110, N-isopropyl-5-(3-(6-(4-isopropyl-4H-1,2,4-triazol-3-yl)pyridin-2-yl)-2-oxoimidazolidin-1-yl)pyridine-2-carboxamide]"
